≈ marks a conversion by molar mass, not a printed value.
Legend:
Staphylococcus aureus [1] = test: Antibacterial activity against methicillin-sensitive Staphylococcus aureus MSSA17-1 measured by liquid dilution method; assay type: functional
[2] = system: Staphylococcus epidermidis; test: Antibacterial activity against methicillin-resistant Staphylococcus epidermidis MRSE17-6 measured by liquid dilution method; assay type: functional
[3] = system: Staphylococcus epidermidis; test: Antibacterial activity against methicillin-resistant Staphylococcus epidermidis MRSE17-3 measured by liquid dilution method; assay type: functional
Staphylococcus aureus [4] = test: Antibacterial activity against methicillin-resistant Staphylococcus aureus ATCC 33591 measured by liquid dilution method; assay type: functional
[5] = Plasma protein binding in CD-1 mouse plasma incubated for 4 hrs and assessed as unbound fraction at 2 uM measured by LC/MS/MS analysis; assay type: ADME, cell-free
[6] = system: Staphylococcus epidermidis; test: Antibacterial activity against methicillin-resistant Staphylococcus epidermidis MRSE17-4 measured by liquid dilution method; assay type: functional
Enterococcus faecium [7] = test: Antibacterial activity against Enterococcus faecium EFM17-2 measured by liquid dilution method; assay type: functional
Staphylococcus aureus [8] = test: Antibacterial activity against methicillin-resistant Staphylococcus aureus MRSA17-2 measured by liquid dilution method; assay type: functional
[9] = system: Staphylococcus epidermidis; test: Antibacterial activity against methicillin-sensitive Staphylococcus epidermidis MSSE17-1 measured by liquid dilution method; assay type: functional
Staphylococcus aureus [10] = test: Antibacterial activity against methicillin-sensitive Staphylococcus aureus MSSA17-2 measured by liquid dilution method; assay type: functional
Staphylococcus aureus [11] = test: Antibacterial activity against methicillin-resistant Staphylococcus aureus MRSA17-5 measured by liquid dilution method; assay type: functional
Staphylococcus aureus [12] = test: Antibacterial activity against methicillin-resistant Staphylococcus aureus ATCC 43300 measured by liquid dilution method; assay type: functional
Enterococcus faecalis [13] = test: Antibacterial activity against Enterococcus faecalis EFA17-1 measured by liquid dilution method; assay type: functional
[14] = system: Staphylococcus epidermidis; test: Antibacterial activity against methicillin-resistant Staphylococcus epidermidis MRSE17-2 measured by liquid dilution method; assay type: functional
Staphylococcus aureus [15] = test: Antibacterial activity against Staphylococcus aureus ATCC 29213 measured by liquid dilution method; assay type: functional
Staphylococcus aureus [16] = test: Antibacterial activity against vancomycin-intermediate Staphylococcus aureus ATCC 700788 measured by liquid dilution method; assay type: functional
[17] = system: Staphylococcus epidermidis; test: Antibacterial activity against methicillin-sensitive Staphylococcus epidermidis MSSE17-3 measured by liquid dilution method; assay type: functional
Staphylococcus aureus [18] = test: Antibacterial activity against methicillin-resistant Staphylococcus aureus MRSA17-1 measured by liquid dilution method; assay type: functional
Enterococcus faecium [19] = test: Antibacterial activity against Enterococcus faecium EFM17-1 measured by liquid dilution method; assay type: functional
[20] = Plasma protein binding in CD-1 mouse plasma incubated for 4 hrs at 2 uM measured by LC/MS/MS analysis; assay type: ADME, cell-free; conditions: read-out: PPB (converted)
Enterococcus faecalis [21] = test: Antibacterial activity against Enterococcus faecalis ATCC 29212 measured by liquid dilution method; assay type: functional
[22] = system: Staphylococcus epidermidis; test: Antibacterial activity against methicillin-resistant Staphylococcus epidermidis MRSE17-1 measured by liquid dilution method; assay type: functional
[23] = system: Staphylococcus epidermidis; test: Antibacterial activity against methicillin-sensitive Staphylococcus epidermidis MSSE17-2 measured by liquid dilution method; assay type: functional
Staphylococcus aureus [24] = test: Antibacterial activity against methicillin-sensitive Staphylococcus aureus MSSA17-3 measured by liquid dilution method; assay type: functional
Staphylococcus aureus [25] = test: Antibacterial activity against methicillin-resistant Staphylococcus aureus MRSA17-6 measured by liquid dilution method; assay type: functional
Staphylococcus aureus [26] = test: Antibacterial activity against vancomycin-intermediate Staphylococcus aureus ATCC 700699 measured by liquid dilution method; assay type: functional
Staphylococcus aureus [27] = test: Antibacterial activity against methicillin-resistant Staphylococcus aureus MRSA17-3 measured by liquid dilution method; assay type: functional
Staphylococcus aureus [28] = test: Antibacterial activity against vancomycin-intermediate Staphylococcus aureus measured by liquid dilution method; assay type: functional
Helicobacter pylori = test: Antibacterial activity against Helicobacter pylori measured by liquid dilution method; assay type: functional
[29] = Stability in CD-1 mouse whole blood assessed as compound remaining at 2 uM and measured at 30 mins LC-MS/MS analysis; assay type: ADME, tissue-based; conditions: read-out: Stability
[30] = Stability in CD-1 mouse whole blood assessed as compound remaining at 2 uM and measured at 10 mins LC-MS/MS analysis; assay type: ADME, tissue-based; conditions: read-out: Stability
[31] = Stability in CD-1 mouse whole blood assessed as compound remaining at 2 uM and measured at 120 mins LC-MS/MS analysis; assay type: ADME, tissue-based; conditions: read-out: Stability
[32] = Stability in CD-1 mouse whole blood assessed as compound remaining at 2 uM and measured at 60 mins LC-MS/MS analysis; assay type: ADME, tissue-based; conditions: read-out: Stability

| SMILES | MIC (Staphylococcus aureus [1]) | MIC [2] | MIC [3] | MIC (Staphylococcus aureus [4]) | fraction unbound at 4 h, 2 µM [5] | MIC [6] | MIC (Enterococcus faecium [7]) | MIC (Staphylococcus aureus [8]) | MIC [9] | MIC (Staphylococcus aureus [10]) | MIC (Staphylococcus aureus [11]) | MIC (Staphylococcus aureus [12]) | MIC (Enterococcus faecalis [13]) | MIC [14] | MIC (Staphylococcus aureus [15]) | MIC (Staphylococcus aureus [16]) | MIC [17] | MIC (Staphylococcus aureus [18]) | MIC (Enterococcus faecium [19]) | fraction unbound at 4 h, 2 µM [20] | further results |
| --- | --- | --- | --- | --- | --- | --- | --- | --- | --- | --- | --- | --- | --- | --- | --- | --- | --- | --- | --- | --- | --- |
| CNC1=NC(=O)[C@H]([C@H](C)c2c[nH]c3cccc(C)c23)O1 | 1 µg/mL (≈ 3.69 µM) | 0.5 µg/mL (≈ 1.84 µM) | 0.125 µg/mL (≈ 0.461 µM) | 1 µg/mL (≈ 3.69 µM) | 0.276 | 0.5 µg/mL (≈ 1.84 µM) | > 128 µg/mL | 0.5 µg/mL (≈ 1.84 µM) | 0.125 µg/mL (≈ 0.461 µM) | 1 µg/mL (≈ 3.69 µM) | 1 µg/mL (≈ 3.69 µM) | 0.5 µg/mL (≈ 1.84 µM) | > 128 µg/mL | 0.5 µg/mL (≈ 1.84 µM) | 1 µg/mL (≈ 3.69 µM) | 0.5 µg/mL (≈ 1.84 µM) | 0.25 µg/mL (≈ 0.921 µM) | 0.5 µg/mL (≈ 1.84 µM) | > 128 µg/mL | 0.276 | MIC (Enterococcus faecalis [21]): > 128 µg/mL; MIC [22]: 0.5 µg/mL (≈ 1.84 µM); MIC [23]: 0.25 µg/mL (≈ 0.921 µM); MIC (Staphylococcus aureus [24]): 0.5 µg/mL (≈ 1.84 µM); MIC (Staphylococcus aureus [25]): 0.5 µg/mL (≈ 1.84 µM); MIC (Staphylococcus aureus [26]): 0.5 µg/mL (≈ 1.84 µM); MIC (Staphylococcus aureus [27]): 0.5 µg/mL (≈ 1.84 µM) |
| CNC1=NC(=O)[C@H]([C@H](C)c2c[nH]c3cccc(F)c23)O1 | 1 µg/mL (≈ 3.63 µM) | 1 µg/mL (≈ 3.63 µM) | 0.5 µg/mL (≈ 1.82 µM) | 1 µg/mL (≈ 3.63 µM) | 0.2 | 1 µg/mL (≈ 3.63 µM) | > 128 µg/mL | 1 µg/mL (≈ 3.63 µM) | 0.5 µg/mL (≈ 1.82 µM) | 1 µg/mL (≈ 3.63 µM) | 1 µg/mL (≈ 3.63 µM) | 1 µg/mL (≈ 3.63 µM) | > 128 µg/mL | 1 µg/mL (≈ 3.63 µM) | 1 µg/mL (≈ 3.63 µM) | 0.5 µg/mL (≈ 1.82 µM) | 1 µg/mL (≈ 3.63 µM) | 0.5 µg/mL (≈ 1.82 µM) | > 128 µg/mL | 0.2 | MIC (Enterococcus faecalis [21]): > 128 µg/mL; MIC [22]: 2 µg/mL (≈ 7.27 µM); MIC [23]: 1 µg/mL (≈ 3.63 µM); MIC (Staphylococcus aureus [24]): 0.5 µg/mL (≈ 1.82 µM); MIC (Staphylococcus aureus [25]): 0.5 µg/mL (≈ 1.82 µM); MIC (Staphylococcus aureus [26]): 0.5 µg/mL (≈ 1.82 µM); MIC (Staphylococcus aureus [27]): 0.5 µg/mL (≈ 1.82 µM) |
| CNC1=NC(=O)[C@H]([C@H](C)c2c[nH]c3cccc(Cl)c23)O1 | 1 µg/mL (≈ 3.43 µM) | 1 µg/mL (≈ 3.43 µM) | 0.25 µg/mL (≈ 0.857 µM) | 2 µg/mL (≈ 6.86 µM) | 0.134 | 1 µg/mL (≈ 3.43 µM) | > 128 µg/mL | 1 µg/mL (≈ 3.43 µM) | 0.25 µg/mL (≈ 0.857 µM) | 1 µg/mL (≈ 3.43 µM) | 1 µg/mL (≈ 3.43 µM) | 1 µg/mL (≈ 3.43 µM) | > 128 µg/mL | 0.5 µg/mL (≈ 1.71 µM) | 2 µg/mL (≈ 6.86 µM) | 1 µg/mL (≈ 3.43 µM) | 0.5 µg/mL (≈ 1.71 µM) | 1 µg/mL (≈ 3.43 µM) | > 128 µg/mL | 0.134 | MIC (Enterococcus faecalis [21]): > 128 µg/mL; MIC [22]: 1 µg/mL (≈ 3.43 µM); MIC [23]: 0.5 µg/mL (≈ 1.71 µM); MIC (Staphylococcus aureus [24]): 0.5 µg/mL (≈ 1.71 µM); MIC (Staphylococcus aureus [25]): 1 µg/mL (≈ 3.43 µM); MIC (Staphylococcus aureus [26]): 0.5 µg/mL (≈ 1.71 µM); MIC (Staphylococcus aureus [27]): 0.5 µg/mL (≈ 1.71 µM) |
| CNC1=NC(=O)[C@H]([C@H](C)c2c[nH]c3ccccc23)O1 [INDOMYCIN] | 0.5 µg/mL (≈ 1.94 µM) | 1 µg/mL (≈ 3.89 µM) | 0.25 µg/mL (≈ 0.972 µM) | 1 µg/mL (≈ 3.89 µM) | 0.441 | 1 µg/mL (≈ 3.89 µM) | > 128 µg/mL | 0.5 µg/mL (≈ 1.94 µM) | 0.25 µg/mL (≈ 0.972 µM) | 0.5 µg/mL (≈ 1.94 µM) | 0.5 µg/mL (≈ 1.94 µM) | 0.25 µg/mL (≈ 0.972 µM) | > 128 µg/mL | 1 µg/mL (≈ 3.89 µM) | 0.5 µg/mL (≈ 1.94 µM) | 0.25 µg/mL (≈ 0.972 µM) | 0.5 µg/mL (≈ 1.94 µM) | 0.5 µg/mL (≈ 1.94 µM) | > 128 µg/mL | 0.441 | MIC (Staphylococcus aureus [28]): 0.125 µg/mL (≈ 0.486 µM); MIC (Enterococcus faecalis [21]): > 128 µg/mL; MIC90 (Helicobacter pylori): 0.031 µg/mL (≈ 0.12 µM); MIC [22]: 1 µg/mL (≈ 3.89 µM); MIC [23]: 0.5 µg/mL (≈ 1.94 µM); MIC (Staphylococcus aureus [24]): 0.25 µg/mL (≈ 0.972 µM); MIC (Staphylococcus aureus [25]): 0.25 µg/mL (≈ 0.972 µM); MIC (Staphylococcus aureus [26]): 0.125 µg/mL (≈ 0.486 µM); MIC (Staphylococcus aureus [27]): 0.25 µg/mL (≈ 0.972 µM) |
| CC(C)[N+](C)(CCOC(=O)C1c2ccccc2Oc2ccccc21)C(C)C [PROPANTHELINE BROMIDE] | – | – | – | – | – | – | – | – | – | – | – | – | – | – | – | – | – | – | – | – | remaining at 0.5 h, 2 µM [29]: 82.9%; remaining at 10 min, 2 µM [30]: 93.5%; remaining at 2 h, 2 µM [31]: 38.3%; remaining at 1 h, 2 µM [32]: 64.7% |
